Assay [1] deals with Cyclin-dependent kinase 19 (Homo sapiens, UniProt Q9BWU1). The experiment in a line: Displacement of polymer supported probe 25 binding to CDK11 in human THP-1 cell lysates preincubated for 45 mins under shaking condition followed by probe addition and measured after 30 mins by mass spectrometry based chemoproteomic analysis. The assay is classed as subcellular. As to conditions: read-out: Kd(app).

Assay [2] addresses T1, Interleukin-1 receptor-associated kinase 3 (Homo sapiens, UniProt Q9Y616).
T1 sequence (Q9Y616 whole entry): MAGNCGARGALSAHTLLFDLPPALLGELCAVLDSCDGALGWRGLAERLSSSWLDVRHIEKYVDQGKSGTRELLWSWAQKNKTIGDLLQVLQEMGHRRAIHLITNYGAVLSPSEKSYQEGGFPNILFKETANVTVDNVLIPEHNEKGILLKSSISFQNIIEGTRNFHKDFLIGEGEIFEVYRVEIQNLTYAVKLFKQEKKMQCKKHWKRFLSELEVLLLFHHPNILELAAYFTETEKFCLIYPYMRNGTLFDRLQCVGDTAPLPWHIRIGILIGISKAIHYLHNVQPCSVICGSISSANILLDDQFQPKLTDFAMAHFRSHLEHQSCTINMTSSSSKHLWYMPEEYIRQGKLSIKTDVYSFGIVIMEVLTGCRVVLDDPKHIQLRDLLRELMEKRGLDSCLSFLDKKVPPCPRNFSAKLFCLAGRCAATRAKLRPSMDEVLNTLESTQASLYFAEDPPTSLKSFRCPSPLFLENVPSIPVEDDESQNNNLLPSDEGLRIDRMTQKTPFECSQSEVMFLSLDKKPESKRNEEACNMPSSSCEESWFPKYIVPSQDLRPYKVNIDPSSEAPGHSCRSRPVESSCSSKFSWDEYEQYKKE
Put plainly: Displacement of polymer supported probe 25 binding to IRAK3 in human THP-1 cell lysates preincubated for 45 mins under shaking condition followed by probe addition and measured after 30 mins by mass spectrometry based chemoproteomic analysis. The conditions noted are these: read-out: Kd(app). In kind it is subcellular.

Assay [3] has as its target T2, Interleukin-1 receptor-associated kinase 1 (Homo sapiens, UniProt P51617). The experiment in a line: Displacement of polymer supported probe 25 binding to IRAK1 in human THP-1 cell lysates preincubated for 45 mins under shaking condition followed by probe addition and measured after 30 mins by mass spectrometry based chemoproteomic analysis. In kind it is subcellular. As to conditions: read-out: Kd(app).

The target in assay [4] is T3, Protein cereblon/Interleukin-1 receptor-associated kinase 3 (Homo sapiens, UniProt Q9Y616+Q96SW2). The experiment in a line: Protac activity at CRBN/IRAK3 in human PBMC derived primary macrophages assessed as induction of IRAK3 degradation at 0.3 uM preincubated for 8 hrs followed by LPS-stimulation and measured after 8 to 32 hrs by Western blot analysis. As to conditions: Primary macrophage. The assay is classed as tissue-based. For orientation: Immunoblotting shows a protein as a band on a membrane.
Target sequence in this assay (Q96SW2 whole entry, looked up, one chain of several): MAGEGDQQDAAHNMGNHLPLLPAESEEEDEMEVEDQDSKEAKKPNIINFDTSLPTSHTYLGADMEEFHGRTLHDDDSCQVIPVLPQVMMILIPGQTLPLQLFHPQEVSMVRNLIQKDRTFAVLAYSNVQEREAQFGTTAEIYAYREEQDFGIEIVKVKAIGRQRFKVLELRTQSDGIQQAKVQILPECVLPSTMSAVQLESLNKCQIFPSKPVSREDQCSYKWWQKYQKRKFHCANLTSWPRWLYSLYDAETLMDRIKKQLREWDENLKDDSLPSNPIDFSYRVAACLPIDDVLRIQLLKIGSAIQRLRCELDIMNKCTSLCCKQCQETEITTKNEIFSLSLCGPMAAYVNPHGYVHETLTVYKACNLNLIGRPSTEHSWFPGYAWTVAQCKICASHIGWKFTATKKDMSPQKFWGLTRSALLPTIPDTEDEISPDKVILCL

Assay [5] concerns the target T2, Interleukin-1 receptor-associated kinase 1. Put plainly: Inhibition of recombinant human N-terminal GST-tagged IRAK1 (194 to 712 residues) expressed in baculovirus expression system using 5-FAM-KKKVSRSGLYRSPSMPENLNRPR-COOH as substrate measured after 240 mins by mobility shift assay.
Assay [6] deals with T3, Protein cereblon/Interleukin-1 receptor-associated kinase 3. The experiment in a line: Protac activity at CRBN/IRAK3 in LPS-induced human THP1 cells assessed as induction of IRAK3 degradation after 16 hrs by Western blot analysis. In kind it is cell-based. As to conditions: thp-1.
Target sequence in this assay (Q96SW2 whole entry, one chain of several): as the sequence (Q96SW2 whole entry, looked up, one chain of several) above
The test system of assay [7] is THP-1. Put plainly: Selectivity ratio of Kd(app) for displacement of polymer supported probe 25 binding to GSG2 in human THP-1 cell lysates to Kd(app) for displacement of polymer supported probe 25 binding to IRAK3 in human THP-1 cell lysates.
Assay [8] concerns the target CDK8/Cyclin C (Homo sapiens, UniProt P49336). The experiment in a line: Inhibition of CDK8/cyclin C (unknown origin). The assay is classed as protein-complex assay.
Assay [9] deals with NT-3 growth factor receptor (Homo sapiens, UniProt Q16288). The experiment in a line: Inhibition of NTRK3 (unknown origin) at 0.1 uM relative to control.
Chain of NT-3 growth factor receptor (Q16288 32-839 limits assumed): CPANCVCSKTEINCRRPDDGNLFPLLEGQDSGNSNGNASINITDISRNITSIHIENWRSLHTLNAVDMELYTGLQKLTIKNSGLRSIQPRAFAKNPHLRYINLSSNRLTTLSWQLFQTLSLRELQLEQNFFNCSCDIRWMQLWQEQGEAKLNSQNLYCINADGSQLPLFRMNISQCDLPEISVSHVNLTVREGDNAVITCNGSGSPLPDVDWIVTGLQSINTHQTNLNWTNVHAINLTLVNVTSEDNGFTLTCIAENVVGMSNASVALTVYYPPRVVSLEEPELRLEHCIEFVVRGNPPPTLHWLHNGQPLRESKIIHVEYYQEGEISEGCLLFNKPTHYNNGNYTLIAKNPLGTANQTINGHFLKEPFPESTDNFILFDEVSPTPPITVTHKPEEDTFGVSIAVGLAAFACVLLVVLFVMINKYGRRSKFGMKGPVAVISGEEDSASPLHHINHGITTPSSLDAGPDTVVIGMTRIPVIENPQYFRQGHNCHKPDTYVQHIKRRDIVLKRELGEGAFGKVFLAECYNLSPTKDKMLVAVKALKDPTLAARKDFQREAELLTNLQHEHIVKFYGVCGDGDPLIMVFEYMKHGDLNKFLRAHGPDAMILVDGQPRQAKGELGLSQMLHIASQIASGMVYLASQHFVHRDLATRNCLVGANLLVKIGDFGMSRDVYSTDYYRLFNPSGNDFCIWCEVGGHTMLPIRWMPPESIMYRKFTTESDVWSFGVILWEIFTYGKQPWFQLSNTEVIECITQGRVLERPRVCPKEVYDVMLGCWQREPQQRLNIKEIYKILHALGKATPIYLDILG
Assay [10] addresses T3, Protein cereblon/Interleukin-1 receptor-associated kinase 3. The experiment in a line: Protac activity at CRBN/IRAK3 in human THP1 cells assessed as induction of IRAK3 degradation at 0.1 uM measured after 6 hrs in presence of NEDD8-activating enzyme inhibitor MLN4924 by Western blot analysis. The assay is classed as cell-based. The conditions noted are these: THP-1.
Target sequence in this assay (Q96SW2 whole entry, looked up, one chain of several): as the sequence (Q96SW2 whole entry, looked up, one chain of several) above

The source of these data is ChEMBL document CHEMBL4725370, “Discovery of Proteolysis-Targeting Chimera Molecules that Selectively Degrade the IRAK3 Pseudokinase” (J Med Chem, 2020).

Calls of active or inactive are those of the source. The rule behind the calls is not given here.

T2 sequence (P51617 whole entry): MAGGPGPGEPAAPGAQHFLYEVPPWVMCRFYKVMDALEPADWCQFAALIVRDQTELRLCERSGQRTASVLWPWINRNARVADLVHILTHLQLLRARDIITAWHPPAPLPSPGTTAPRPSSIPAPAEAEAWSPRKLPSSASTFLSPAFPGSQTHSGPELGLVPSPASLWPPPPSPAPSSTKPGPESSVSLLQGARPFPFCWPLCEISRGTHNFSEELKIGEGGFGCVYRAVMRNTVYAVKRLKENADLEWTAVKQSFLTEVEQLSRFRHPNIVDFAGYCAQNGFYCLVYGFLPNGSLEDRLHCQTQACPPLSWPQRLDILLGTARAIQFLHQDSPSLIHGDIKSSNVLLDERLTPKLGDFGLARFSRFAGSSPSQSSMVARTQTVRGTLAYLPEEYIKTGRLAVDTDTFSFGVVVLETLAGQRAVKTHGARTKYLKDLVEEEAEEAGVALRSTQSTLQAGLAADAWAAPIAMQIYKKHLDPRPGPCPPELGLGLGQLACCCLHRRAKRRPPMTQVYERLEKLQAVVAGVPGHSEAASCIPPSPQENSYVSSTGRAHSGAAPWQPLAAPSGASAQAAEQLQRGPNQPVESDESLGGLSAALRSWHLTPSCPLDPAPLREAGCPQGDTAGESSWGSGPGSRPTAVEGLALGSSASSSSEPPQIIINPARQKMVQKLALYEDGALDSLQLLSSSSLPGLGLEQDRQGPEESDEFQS
Chain of CDK8/Cyclin C (P49336 whole entry): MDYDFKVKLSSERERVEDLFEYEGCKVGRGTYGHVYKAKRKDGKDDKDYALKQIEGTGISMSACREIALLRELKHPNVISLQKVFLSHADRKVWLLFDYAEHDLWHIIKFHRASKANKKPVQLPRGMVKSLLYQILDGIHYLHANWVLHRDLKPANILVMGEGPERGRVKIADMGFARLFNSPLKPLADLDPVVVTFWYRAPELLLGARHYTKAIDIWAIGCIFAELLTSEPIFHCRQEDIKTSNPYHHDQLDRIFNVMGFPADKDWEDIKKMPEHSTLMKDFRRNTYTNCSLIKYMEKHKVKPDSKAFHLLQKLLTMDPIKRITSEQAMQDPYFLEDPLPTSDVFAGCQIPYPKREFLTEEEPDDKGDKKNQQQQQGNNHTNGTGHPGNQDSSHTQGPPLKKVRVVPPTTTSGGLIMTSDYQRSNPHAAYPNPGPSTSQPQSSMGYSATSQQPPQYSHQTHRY
Chain of CDK8/Cyclin C (P24863 whole entry, further chain): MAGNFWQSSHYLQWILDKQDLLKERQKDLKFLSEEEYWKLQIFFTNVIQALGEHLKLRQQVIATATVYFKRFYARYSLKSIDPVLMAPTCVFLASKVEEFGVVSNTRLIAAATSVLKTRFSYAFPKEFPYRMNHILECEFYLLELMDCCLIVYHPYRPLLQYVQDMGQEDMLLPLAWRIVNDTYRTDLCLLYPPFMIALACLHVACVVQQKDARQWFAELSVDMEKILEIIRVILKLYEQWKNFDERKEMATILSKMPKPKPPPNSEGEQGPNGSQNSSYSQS
Chain of Cyclin-dependent kinase 19 (Q9BWU1 whole entry): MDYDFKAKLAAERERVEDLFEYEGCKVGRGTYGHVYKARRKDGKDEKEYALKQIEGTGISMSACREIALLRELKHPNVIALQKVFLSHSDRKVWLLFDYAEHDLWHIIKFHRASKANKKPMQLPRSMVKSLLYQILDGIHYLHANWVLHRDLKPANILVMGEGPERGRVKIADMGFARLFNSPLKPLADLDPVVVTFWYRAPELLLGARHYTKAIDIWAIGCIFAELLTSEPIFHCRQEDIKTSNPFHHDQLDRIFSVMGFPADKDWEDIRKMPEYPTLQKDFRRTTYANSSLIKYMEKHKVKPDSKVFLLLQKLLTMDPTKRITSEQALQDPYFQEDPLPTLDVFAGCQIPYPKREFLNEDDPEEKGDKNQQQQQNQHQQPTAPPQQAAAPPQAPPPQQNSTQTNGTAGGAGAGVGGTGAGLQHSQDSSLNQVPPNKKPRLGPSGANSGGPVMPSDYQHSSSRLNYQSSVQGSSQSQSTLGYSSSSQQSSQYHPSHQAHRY

For the molecule `CC(C)c1ccn2ncnc(N[C@H]3CC[C@@H](N4CCN(C(=O)CCC(=O)N5CCC(CCN6CCN(c7ccc8c(c7)C(=O)N(C7CCC(=O)NC7=O)C8=O)CC6)CC5)CC4)CC3)c12` (stereo not given in full), the Kd was greater than 30000 nM in assay [1], 34 nM in assay [2] and 2800 nM in [3]. For the same molecule, the result in assay [4] was Active. The IC50 (as a rule, the point on the concentration scale where inhibition reaches its midpoint) in assay [5] is 2300 nM; in assay [8], 36 nM. Besides, in assay [6], the DC50 – broadly, the concentration at which degradation of the target reaches its halfway point – was determined as 2 nM. Further, in assay [7], the Selectivity ratio was 23. In addition, the inhibition – broadly, the change of the read-out against control, counted positive when it falls – in assay [9] was found to be 60%. In addition, the outcome in [10] was inactive.
